The results in this text go back to ChEMBL document CHEMBL1133164, “N-[[(5-methyl-3-phenylisoxazol-4-yl)-phenyl]sulfonyl]propanamide, sodium salt, parecoxib sodium: A potent and selective inhibitor of COX-2 for parenteral administration” (J Med Chem, 2000).

pIC50: −log10 of the molar value.

In data set [1] the target is T1, Prostaglandin G/H synthase 2 (Homo sapiens, UniProt P35354).
T1 sequence (P35354 whole entry): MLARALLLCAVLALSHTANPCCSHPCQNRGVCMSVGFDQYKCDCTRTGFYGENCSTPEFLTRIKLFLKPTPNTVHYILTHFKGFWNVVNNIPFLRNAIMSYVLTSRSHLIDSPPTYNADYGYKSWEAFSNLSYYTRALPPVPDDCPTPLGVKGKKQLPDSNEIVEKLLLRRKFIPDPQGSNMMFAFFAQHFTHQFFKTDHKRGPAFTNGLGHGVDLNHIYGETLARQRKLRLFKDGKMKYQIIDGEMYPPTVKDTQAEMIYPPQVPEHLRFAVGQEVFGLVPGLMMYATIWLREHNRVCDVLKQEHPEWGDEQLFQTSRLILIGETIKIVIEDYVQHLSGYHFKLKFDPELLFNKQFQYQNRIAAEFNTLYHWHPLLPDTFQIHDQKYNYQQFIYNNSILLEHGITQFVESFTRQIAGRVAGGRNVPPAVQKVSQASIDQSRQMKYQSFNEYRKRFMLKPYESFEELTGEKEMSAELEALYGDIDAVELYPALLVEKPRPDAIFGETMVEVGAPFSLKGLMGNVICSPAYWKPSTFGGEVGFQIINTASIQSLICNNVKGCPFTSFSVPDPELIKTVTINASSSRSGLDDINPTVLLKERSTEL
Description: Compound was tested for its inhibitory activity against recombinant human Prostaglandin G/H synthase 2

In data set [2] the target is Prostaglandin G/H synthase 1 (Homo sapiens, UniProt P23219). Kind of data set: Compound was tested for its inhibitory activity against recombinant human Prostaglandin G/H synthase 1.
Data set [3] is filed under the species Rattus norvegicus. In words: Compound was tested for the antiinflammatory activity in carrageenan air pouch model of inflammation. In kind it is functional.
A short description of data set [4]: In vivo mean elimination half life in the cynomolgus monkeys by intravenous administration of the compound. In kind it is ADME, organism-based, Macaca fascicularis. As to conditions: cynomolgus monkey.
Data set [5] can be described thus: In vivo mean elimination half life in the female dogs by intravenous administration of the compound. The note with it: dog. The format is ADME, organism-based, Canis lupus familiaris.
Data set [6] can be described thus: In vivo mean elimination half life in the male rat by intravenous administration of the compound. The format is ADME, organism-based.
Data set [7] is filed under the species Rattus norvegicus. In words: Compound was tested for the chronic antiinflammatory activity in rat adjuvant arthritis model. In kind it is functional.
Data set [8] concerns Rattus norvegicus. Kind of data set: Compound was tested for complete blockade of carrageenan induced hyperalgesia within 1 hr after iv administration. The format is functional.
The subject of data set [9] is Rattus norvegicus. In words: Compound was tested for the percentage inhibition at 0.3 mg/kg in carrageenan air pouch assay. In kind it is functional.
For data set [10], the species on record is Rattus norvegicus. In words: Compound was tested for the antiinflammatory activity in rat adjuvant arthritis model. The format is functional.

Prostaglandin G/H synthase 1, sequence (P23219 whole entry): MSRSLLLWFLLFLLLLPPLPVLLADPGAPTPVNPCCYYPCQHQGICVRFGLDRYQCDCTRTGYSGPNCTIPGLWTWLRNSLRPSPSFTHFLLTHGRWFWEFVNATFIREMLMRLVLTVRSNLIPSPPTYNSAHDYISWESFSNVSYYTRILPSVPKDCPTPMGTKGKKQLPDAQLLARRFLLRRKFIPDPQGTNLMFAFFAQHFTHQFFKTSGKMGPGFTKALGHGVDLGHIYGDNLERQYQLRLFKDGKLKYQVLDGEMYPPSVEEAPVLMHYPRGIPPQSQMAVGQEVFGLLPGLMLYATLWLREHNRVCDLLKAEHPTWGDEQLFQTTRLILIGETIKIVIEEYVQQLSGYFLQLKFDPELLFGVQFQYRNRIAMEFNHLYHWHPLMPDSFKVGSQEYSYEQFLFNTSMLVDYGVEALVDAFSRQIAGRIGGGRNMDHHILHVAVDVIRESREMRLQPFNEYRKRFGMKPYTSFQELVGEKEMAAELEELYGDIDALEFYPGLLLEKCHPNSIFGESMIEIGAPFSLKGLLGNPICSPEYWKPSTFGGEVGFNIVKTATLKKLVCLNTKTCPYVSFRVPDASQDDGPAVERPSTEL

For the molecule `CC(=O)[N-]S(=O)(=O)c1ccc(-c2c(-c3ccccc3)noc2C)cc1.[Na+]`, the pIC50 in data set [1] is 4.70; in data set [2], 4.00. Also, in the data set filed under Rattus norvegicus [3], the ED50 was found to be 0.5 mg/kg.
As to `CCC(=O)[N-]S(=O)(=O)c1ccc(-c2c(-c3ccccc3)noc2C)cc1.[Na+]` [PARECOXIB SODIUM], the values for the half-life in data set [4], in [5] and in [6] were 72.6 min, 33.2 min and 8.1 min, respectively. Moreover, the ED50 in the data set filed under Rattus norvegicus [7] came out at 0.08 mg/kg; with Rattus norvegicus [8] it was 5 mg/kg. The inhibition in vivo at 0.3 mg/kg in the data set on Rattus norvegicus [9] worked out at 98%.
With `Cc1onc(-c2ccccc2)c1-c1ccc(S(N)(=O)=O)cc1` [VALDECOXIB], the ED50 in the data set filed under Rattus norvegicus [10] turned out to be 0.08 mg/kg.
